One series concerns Trypanosoma brucei. As to the kind of experiment: Antitrypanosomal activity against Trypanosoma brucei. It is filed as functional, organism-based.
A further series deals with L6. Briefly: Cytotoxicity against rat L6 cells. In kind it is cell-based.
The subject of series [1] is Trypanosoma brucei rhodesiense. As to the kind of experiment: Antitrypanosomal activity against bloodstream forms of Trypanosoma brucei rhodesiense. The following applies: read-out: ED50 (the source's name). It is filed as functional.
Series [2] can be described thus: Selectivity index, ratio of ED50 for mammalian cells to ED50 for Trypanosoma brucei rhodesiense. It is filed as toxicity. The following applies: read-out: Ratio ED50.
Series [3] can be described thus: Inhibition of parasite-specific trypanothione reductase.
Series [4] can be described thus: Inhibition of Trypanosoma brucei GAPDH.
Series [5] has as its target T1, Amyloid-beta precursor protein (Homo sapiens, UniProt P05067). Briefly: Inhibition of self-mediated amyloid beta (1 to 42) aggregation (unknown origin) at 10 uM after 24 hrs by thioflavin T fluorometric assay.
In series [6] the target is Glutamate NMDA receptor; GRIN1/GRIN2A (Homo sapiens, UniProt Q05586+Q12879). Briefly: Inhibition of NMDA receptor (unknown origin) at 100 mV. It is filed as protein-complex assay.
Sequence of Glutamate NMDA receptor; GRIN1/GRIN2A (Q12879 whole entry, other chains not shown): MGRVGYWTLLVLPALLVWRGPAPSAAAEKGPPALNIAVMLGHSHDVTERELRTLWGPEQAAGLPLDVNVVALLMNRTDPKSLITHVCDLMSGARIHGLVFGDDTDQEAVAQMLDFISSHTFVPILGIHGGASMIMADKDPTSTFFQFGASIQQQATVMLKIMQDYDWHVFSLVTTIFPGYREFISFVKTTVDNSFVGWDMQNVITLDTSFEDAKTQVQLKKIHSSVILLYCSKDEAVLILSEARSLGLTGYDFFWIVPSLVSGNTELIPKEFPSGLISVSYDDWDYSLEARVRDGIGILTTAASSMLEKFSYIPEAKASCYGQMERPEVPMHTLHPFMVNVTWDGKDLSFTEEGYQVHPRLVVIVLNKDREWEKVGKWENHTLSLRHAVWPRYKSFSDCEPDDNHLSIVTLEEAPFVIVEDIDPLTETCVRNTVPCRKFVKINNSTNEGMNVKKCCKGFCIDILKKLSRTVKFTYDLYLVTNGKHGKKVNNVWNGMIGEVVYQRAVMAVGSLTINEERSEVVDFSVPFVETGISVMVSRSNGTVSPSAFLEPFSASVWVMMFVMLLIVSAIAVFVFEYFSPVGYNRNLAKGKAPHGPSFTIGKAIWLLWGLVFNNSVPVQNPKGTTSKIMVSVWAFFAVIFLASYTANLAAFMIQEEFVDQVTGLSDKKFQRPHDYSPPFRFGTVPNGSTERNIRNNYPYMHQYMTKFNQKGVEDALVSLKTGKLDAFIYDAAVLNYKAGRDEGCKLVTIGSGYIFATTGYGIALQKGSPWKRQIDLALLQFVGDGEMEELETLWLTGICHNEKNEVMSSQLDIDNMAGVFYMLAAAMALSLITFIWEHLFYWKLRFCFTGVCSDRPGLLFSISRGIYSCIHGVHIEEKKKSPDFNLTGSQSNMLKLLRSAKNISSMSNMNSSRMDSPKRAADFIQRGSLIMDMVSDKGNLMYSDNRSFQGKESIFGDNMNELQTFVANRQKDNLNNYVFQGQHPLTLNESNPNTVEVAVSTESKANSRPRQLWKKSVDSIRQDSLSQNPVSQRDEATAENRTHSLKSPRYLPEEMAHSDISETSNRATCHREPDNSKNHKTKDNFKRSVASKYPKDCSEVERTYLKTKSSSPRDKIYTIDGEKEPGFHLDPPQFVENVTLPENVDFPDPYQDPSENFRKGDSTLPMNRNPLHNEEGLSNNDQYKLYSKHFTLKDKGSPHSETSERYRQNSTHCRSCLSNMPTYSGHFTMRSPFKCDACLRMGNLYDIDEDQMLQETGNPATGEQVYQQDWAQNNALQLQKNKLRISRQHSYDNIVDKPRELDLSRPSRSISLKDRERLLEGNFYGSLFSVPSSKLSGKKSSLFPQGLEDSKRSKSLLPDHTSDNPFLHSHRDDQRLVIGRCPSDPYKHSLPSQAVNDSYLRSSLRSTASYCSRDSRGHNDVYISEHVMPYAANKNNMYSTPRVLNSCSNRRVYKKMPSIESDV
In series [7] the target is T2, Acetylcholinesterase (Homo sapiens, UniProt P22303). Briefly: Inhibition of human recombinant AChE using acetylthiocholine iodide as substrate after 20 mins by Ellmans method. (In general: Ellman's reagent forms a yellow product with free thiols.)
T2 sequence (P22303 whole entry): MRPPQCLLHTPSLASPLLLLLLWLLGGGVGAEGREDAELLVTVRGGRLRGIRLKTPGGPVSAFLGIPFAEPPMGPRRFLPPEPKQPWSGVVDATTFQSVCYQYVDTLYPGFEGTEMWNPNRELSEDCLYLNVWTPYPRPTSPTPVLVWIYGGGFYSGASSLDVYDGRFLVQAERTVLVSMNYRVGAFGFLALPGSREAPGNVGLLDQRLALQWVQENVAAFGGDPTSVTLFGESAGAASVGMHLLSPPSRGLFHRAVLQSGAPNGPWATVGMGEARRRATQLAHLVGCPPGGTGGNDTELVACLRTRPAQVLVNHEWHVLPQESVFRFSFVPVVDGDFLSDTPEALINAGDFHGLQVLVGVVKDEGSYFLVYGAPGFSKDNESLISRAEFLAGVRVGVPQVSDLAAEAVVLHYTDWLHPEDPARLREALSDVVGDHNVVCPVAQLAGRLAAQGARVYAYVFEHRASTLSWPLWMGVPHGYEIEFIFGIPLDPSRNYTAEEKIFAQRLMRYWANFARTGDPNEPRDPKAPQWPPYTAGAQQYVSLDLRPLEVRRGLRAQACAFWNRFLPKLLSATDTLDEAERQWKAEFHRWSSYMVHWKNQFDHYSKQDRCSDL
The target of series [8] is T2, Acetylcholinesterase. As to the kind of experiment: Inhibition of human recombinant AChE using acetylthiocholine iodide as substrate after 20 mins by Ellmans method relative to dimebon.
Series [9] has as its target T1, Amyloid-beta precursor protein. As to the kind of experiment: Inhibition of self-mediated amyloid beta (1 to 42) aggregation (unknown origin) after 24 hrs by thioflavin T fluorometric assay.

The source made the active and inactive calls. The calls are words filed in the database; no cut-off is given here.

T1 sequence (P05067 whole entry): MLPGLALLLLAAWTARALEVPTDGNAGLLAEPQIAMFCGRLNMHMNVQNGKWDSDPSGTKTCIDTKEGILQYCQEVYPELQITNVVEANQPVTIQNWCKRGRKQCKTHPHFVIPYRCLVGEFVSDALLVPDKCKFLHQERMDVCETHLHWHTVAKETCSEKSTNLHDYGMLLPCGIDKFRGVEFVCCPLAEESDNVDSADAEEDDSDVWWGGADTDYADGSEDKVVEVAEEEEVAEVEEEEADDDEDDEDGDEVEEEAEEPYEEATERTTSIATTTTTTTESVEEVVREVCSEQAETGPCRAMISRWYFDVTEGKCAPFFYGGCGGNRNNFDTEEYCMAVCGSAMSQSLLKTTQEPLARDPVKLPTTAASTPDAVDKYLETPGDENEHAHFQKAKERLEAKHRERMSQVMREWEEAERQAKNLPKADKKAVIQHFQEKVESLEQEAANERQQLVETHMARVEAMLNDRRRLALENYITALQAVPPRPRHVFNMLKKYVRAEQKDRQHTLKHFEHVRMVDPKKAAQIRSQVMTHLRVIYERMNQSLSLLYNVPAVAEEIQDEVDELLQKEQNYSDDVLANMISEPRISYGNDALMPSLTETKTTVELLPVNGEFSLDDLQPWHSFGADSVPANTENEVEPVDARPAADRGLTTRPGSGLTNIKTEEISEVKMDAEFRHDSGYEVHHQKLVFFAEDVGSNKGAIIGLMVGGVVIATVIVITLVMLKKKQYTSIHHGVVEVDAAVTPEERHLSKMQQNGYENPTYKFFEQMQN

For the compound `CN(C)CCCOc1ccc2oc(=O)c(-c3ccc(OC4=CC(=O)c5cc6ccccc6cc5C4=O)cc3)cc2c1`, in the series with Trypanosoma brucei, the EC50 was 26 nM. The same compound yielded an Activity in the series with L6 of 7.95 µM.
For the compound `O=C1C=C(Oc2ccccc2)C(=O)c2ccccc21`, in series [1], the EC50 worked out at 80 nM. In series [2], the selectivity ratio is 74.
The term Ki denotes a measure of affinity in units of concentration, obtained from inhibition or displacement. Lower therefore signals tighter binding. Broadly, the IC50 is the point on the concentration scale where inhibition reaches its midpoint. For `CN(C)CCOc1cc2ccc(OC3=CC(=O)c4cc5ccccc5cc4C3=O)cc2oc1=O`, affinity in series [3] was put at a Ki of 2700 nM. The compound also came in with an IC50 in series [4] of 5400 nM.
One may read the inhibition as the percentage by which the read-out fell short of the control. In turn, `Cc1ccc2[nH]c3c(c2c1)CN(CCCCCCCN1CCc2[nH]c4ccc(C)cc4c2C1)CC3` showed an inhibition in series [5] of 35.2%. The IC50 worked out at 12600 nM in series [6] and 690 nM at Acetylcholinesterase [7]. On Acetylcholinesterase [8], the fold change (FC) is 128.
Consider `CCN(CCCCCCNC1=CC(=O)C(NCCCCCCN(CC)Cc2ccccc2OC)=CC1=O)Cc1ccccc1OC` [MEMOQUIN], for which, on Acetylcholinesterase [7], the IC50 was found to be 15400 nM.
For the compound `O=C(Cc1ccccc1Nc1c(Cl)cccc1Cl)NCCCNCCCNC1=CC(=O)C(NCCCNCCCNC(=O)Cc2ccccc2Nc2c(Cl)cccc2Cl)=CC1=O`, the IC50 in series [9] came to 3110 nM; at Acetylcholinesterase [7] it was 600 nM.
For `Cc1ccc2c(c1)c1c(n2CCc2ccc(C)nc2)CCN(C)C1` [LATREPIRDINE], the inhibition entry in [5] is “inactive”. The same compound displayed an IC50 in series [6] of 13900 nM.
For the compound `Cc1ccc2[nH]c3c(c2c1)CN(CCCCCCN1CCc2[nH]c4ccc(C)cc4c2C1)CC3`, the inhibition in series [5] was 35.6%. For the same compound, the IC50 stood at 11000 nM in [6] and 190 nM on Acetylcholinesterase [7]. Also, the fold change (FC) at Acetylcholinesterase [8] stood at 128.

For the origin of these results see ChEMBL document CHEMBL3585239, “Two diseases, one approach: multitarget drug discovery in Alzheimer's and neglected tropical diseases” (Medchemcomm, 2014).
